In patent US5223421A, “Identification of methionine Nα-acetyltransferase” (The General Hospital Corporation, priority 1990, dated 1993):
Entries after “also recorded” stand apart in the source; their conditions may differ. Read-outs that look alike come from different tables or passages of the source. Ends that are not written are not given here.

Tests used:
[1] = system: methionine N^α -acetyltransferase from S. cerevisiae; assay type: biochemical, Saccharomyces cerevisiae; conditions: for effect of divalent cation on M-N^α AT activity: 1 mM; for effect of ion or salt on M-N^α AT activity: concentration not given; for Enzyme Activity (%): 5 min room temperature, 50 mM HEPES pH 7.4, 1 mM DTT, substrate PAI (N=3)
Method: (§1) N^α -acetyltransferase activity was determined as previously described [Lee et al., J. Biol. Chem. 263:14948-14955 (1988)]. Aliquots of the lysate or chromatographic fractions were added to 1.5 ml Eppendorf tubes containing a reaction mixture of 50 mM HEPES, pH 7.4, 150 mM KCl, 1 mM DTT, 25 μM [^3 H] acetyl coenzyme A (0.5 μCi) and 50 μM synthetic peptide with an adjusted final volume of 100 μl. The assay mixture was incubated at 30° C. for 30 min. The reaction was stopped by adding 17 μl of 0.5M acetic acid and chilled in an ice bath. The reaction samples were filtered through SP membrane discs (Cuno) (previously pre-swollen in 0.5M acetic acid), and then washed three times with 1 ml of 0.5M acetic acid on a Millipore 1225 sampling manifold. The partially dried membranes were placed in scintillation cocktail and counted with a Beckman LS 3801 scintillation counter.
Yeast methionine acetyltransferase was incubated in the presence of various divalent cations at a room temperature for 5 min in 50 mM HEPES, pH 7.4 containing 1 mM DTT. The enzyme activity was determined under standard assay conditions using PAI (N=3), as described above.

[2] = system: methionine N^α -acetyltransferase from S. cerevisiae; assay: Effect of protein modification reagents on enzyme activity; assay type: biochemical, Saccharomyces cerevisiae; conditions: for Enzyme Activity (%): 30° C. 15 min, then dialyzed, substrate PAI (N=3)
Method: as §1, with “counter. One unit of activity was defined as the amount of enzyme able to transfer 1 pmol of [^3 H] acetyl group from [^3 H] acetyl coenzyme A to synthetic peptide per min under standard enzyme assay conditions defined above.” for “counter.”
In order to determine the possible catalytic role for different types of amino acid residues in the enzyme, various chemical modifications were carried out (Table 10). Yeast methionine acetyltransferase was incubated with each reagent at 30° C. for 15 min, dialyzed against 50 mM HEPES, pH 7.4, 150 mM, 1 mM DTT at 4° C. for 3 to 4 hr. The enzyme activity was determined under standard assay conditions using PAI (N=3), assayed as described above.

[3] = target: T1, AAA1 N^α -acetyltransferase (N^α -AT) (Saccharomyces cerevisiae, UniProt P07347+P12945); assay: Relative activity of N^α -AT for N^α -acetylation of synthetic peptides; assay type: biochemical
T1 sequence (P12945 2-854 limits assumed): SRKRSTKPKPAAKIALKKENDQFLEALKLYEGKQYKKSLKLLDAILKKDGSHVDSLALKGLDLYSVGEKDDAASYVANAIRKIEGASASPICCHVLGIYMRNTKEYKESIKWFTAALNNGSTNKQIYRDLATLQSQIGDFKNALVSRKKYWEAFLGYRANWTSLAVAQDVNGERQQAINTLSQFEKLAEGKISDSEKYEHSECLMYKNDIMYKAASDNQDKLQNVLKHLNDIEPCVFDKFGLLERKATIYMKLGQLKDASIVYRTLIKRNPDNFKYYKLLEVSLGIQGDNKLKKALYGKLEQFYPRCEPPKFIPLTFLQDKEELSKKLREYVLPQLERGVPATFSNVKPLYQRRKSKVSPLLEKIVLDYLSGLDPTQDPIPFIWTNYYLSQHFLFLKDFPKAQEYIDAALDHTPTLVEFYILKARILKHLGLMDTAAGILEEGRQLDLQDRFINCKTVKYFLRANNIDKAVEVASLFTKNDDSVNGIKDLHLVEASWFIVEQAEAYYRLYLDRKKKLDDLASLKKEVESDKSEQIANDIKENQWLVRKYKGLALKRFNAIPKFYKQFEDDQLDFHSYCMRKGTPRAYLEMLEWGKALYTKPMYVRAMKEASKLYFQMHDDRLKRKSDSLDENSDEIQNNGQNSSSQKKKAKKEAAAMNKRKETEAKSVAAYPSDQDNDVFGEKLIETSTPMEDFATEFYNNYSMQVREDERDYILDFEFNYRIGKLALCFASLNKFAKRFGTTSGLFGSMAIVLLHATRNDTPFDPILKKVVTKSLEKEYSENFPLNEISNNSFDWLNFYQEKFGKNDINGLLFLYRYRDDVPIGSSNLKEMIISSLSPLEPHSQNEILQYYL
T1 sequence (P07347 1-238): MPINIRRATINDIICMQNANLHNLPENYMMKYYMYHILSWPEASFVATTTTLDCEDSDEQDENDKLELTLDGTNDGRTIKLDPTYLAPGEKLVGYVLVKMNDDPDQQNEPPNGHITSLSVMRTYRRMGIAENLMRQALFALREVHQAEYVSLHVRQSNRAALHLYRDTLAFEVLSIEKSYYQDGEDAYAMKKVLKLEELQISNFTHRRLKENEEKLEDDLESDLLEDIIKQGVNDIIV
Method: as §1, with “-acetylt[…]” for “-acetyltransferase activity”, “counter. One unit of activity was defined as the amount of enzyme able to transfer 1 pmol of [^3 H] acetyl group from [^3 H] acetyl coenzyme A to synthetic peptide per min under standard enzyme assay conditions defined above.” for “counter.”
(§2) In order to compare the relative specificity and activity of the methionine N^α -acetylt[…] (M-N^α -AT) of the present invention with the specificity and activity of the AAA1 N^α -acetyltransferase (N^α -AT) of Lee, F.-J. S., et al., J. Bacteriol. 171, (1989), U.S. Patent Application of John A. Smith, and Fang-Jen S. Lee, filed Oct. 25, 1989, entitled "ISOLATION OF STRAINS OF SAC[…] ALTERED N^α -ACETYLT[…]" (which references have been incorporated herein by reference) synthetic peptides were prepared. These peptides were assessed for their ability to serve as substrates for the two enzymes. In Table 6, the effect of the amino terminal amino acid on activity is investigated; in Table 7, the effect of the penultimate amino terminal amino acid on activity is investigated.

[4] = system: methionine N^α -acetyltransferase (M-N^α -AT); assay: Relative activity of M-N^α -AT for N^α -acetylation of synthetic peptides; assay type: biochemical, Saccharomyces cerevisiae; set-up: tested at 50 µM; conditions: Table 7, influence of the penultimate amino terminal residue
Method: as §1, with “-acetylt[…]” for “-acetyltransferase activity”, “counter. One unit of activity was defined as the amount of enzyme able to transfer 1 pmol of [^3 H] acetyl group from [^3 H] acetyl coenzyme A to synthetic peptide per min under standard enzyme assay conditions defined above.” for “counter.”
as §2

[5] = Table 6, influence of the amino terminal residue
[6] = Table 7, influence of the penultimate amino terminal residue

For [Ca+2].[Cl-].[Cl-] [CaCl2], the “effect of divalent cation on M-N^α AT activity” value (“effect of divalent cation” below) [1] was “had no effect”, the “effect of ion or salt on M-N^α AT activity” value (shortened to “effect of ion or salt”) [1] was “did not affect enzyme activity” and the “Enzyme Activity (%)” value ([1]; salt 1 mM) was 102%.

In the case of [Cl][Cd][Cl] [CdCl2], the “effect of ion or salt” value ([1]; listed as Cd^2+) is reported as “pronounced and concentration-dependent inhibition; also recorded: also inhibited”, the “Enzyme Activity (%)” value ([1]; salt 0.01 mM) is reported as 103% and the “Enzyme Activity (%)” value ([1]; salt 0.1 mM) is reported as 72%. For the same compound, the “Enzyme Activity (%)” value ([1]; salt 1 mM) was 0%.

For [Cl-].[Cl-].[Co+2] [CoCl2], the “effect of ion or salt” value [1] was “pronounced and concentration-dependent inhibition”, the “Enzyme Activity (%)” value ([1]; salt 0.01 mM) was 106% and the “Enzyme Activity (%)” value ([1]; salt 0.1 mM) was 95%. The “Enzyme Activity (%)” value ([1]; salt 1 mM) was 38%.

CCOC(=O)OC(=O)OCC [DEPC, diethyl pyrocarbonate] was tested, and the “effect of reagent on M-N^α AT activity” value ([2]; concentration not given) was “nearly complete inactivation”, the “Enzyme Activity (%)” value ([2]; reagent 0.05 mM) was 59% and the “Enzyme Activity (%)” value ([2]; reagent 0.5 mM) was 0%.

For O=S(=O)([O-])[O-].[Fe+2] [FeSO4], the “effect of ion or salt” value [1] was “pronounced and concentration-dependent inhibition”, the “Enzyme Activity (%)” value ([1]; salt 0.01 mM) was 108% and the “Enzyme Activity (%)” value ([1]; salt 0.1 mM) was 93%. For the same compound, the “Enzyme Activity (%)” value ([1]; salt 1 mM) was 40%.

For C[S+](C)Cc1cc([N+](=O)[O-])ccc1O.[Br-] [HNBS(CH3)2 -Br, dimethyl-(2-hydroxy-5-nitrobenzyl)sulfonium bromide], the “effect of reagent on M-N^α AT activity” value ([2]; concentration not given) was “partially inactivated the enzyme”, the “Enzyme Activity (%)” value ([2]; reagent 1.0 mM) was 93% and the “Enzyme Activity (%)” value ([2]; reagent 10.0 mM) was 62%.

For [Cl-].[Cl-].[Mg+2] [MgCl2], the “effect of ion or salt” value [1] was “did not affect enzyme activity”, the “Enzyme Activity (%)” value ([1]; salt 0.1 mM) was 105% and the “Enzyme Activity (%)” value ([1]; salt 1 mM) was 98%.

In the case of O=S(=O)([O-])[O-].[Mg+2] [MgSO4], the “effect of ion or salt” value [1] is reported as “did not affect enzyme activity”, the “Enzyme Activity (%)” value ([1]; salt 0.1 mM) is reported as 102% and the “Enzyme Activity (%)” value ([1]; salt 1 mM) is reported as 97%.

For [Mg+2] [Mg^2+], the “effect of divalent cation” value [1] was “had no effect”.

For [Cl][Mn][Cl] [MnCl2], the “effect of divalent cation” value [1] was “had no effect”, the “effect of ion or salt” value [1] was “did not affect enzyme activity” and the “Enzyme Activity (%)” value ([1]; salt 0.1 mM) was 103%. For the same compound, the “Enzyme Activity (%)” value ([1]; salt 1 mM) was 98%.

CC(=O)n1ccnc1 [N-acetylimidazole] was tested, and the “effect of reagent on M-N^α AT activity” value ([2]; concentration not given) was “without effect”, the “Enzyme Activity (%)” value ([2]; reagent 1.0 mM) was 100% and the “Enzyme Activity (%)” value ([2]; reagent 10.0 mM) was 93%.

With O=C1CCC(=O)N1Br [NBS, N-bromosuccinimide] the “effect of reagent on M-N^α AT activity” value ([2]; 0.5 mM) was “partially inactivated the enzyme”, the “effect of reagent on M-N^α AT activity” value ([2]; 5 mM) was “completely inactivated the enzyme” and the “Enzyme Activity (%)” value ([2]; reagent 0.5 mM) was 30%. For the same compound, the “Enzyme Activity (%)” value ([2]; reagent 5.0 mM) was 0%.

With NO [hydroxylamine] the “effect of reagent on M-N^α AT activity” value ([2]; concentration not given) was “slowly inactivated the enzyme” and the “original enzyme activity recovered after diethyl pyrocarbonate inactivation” value ([2]; incubation 6 hr at room temperature with […] hydroxylamine, 250000 µM) was ~ 50%.

In the case of “FIPETQKGVIFYESHGKLEYKDIP (FIPETQKGVIFYESHGKLEYKDIP)”, the “Activity (%) (mean activity ± S.D.) N^a -AT” value [3, 5] is reported as 9 ± 2%.

For “HIPETQKGVIFYESHGKLEYKDIP (HIPETQKGVIFYESHGKLEYKDIP; also: tritium label)”, the “Activity (%) (mean activity ± S.D.) N^a -AT” value [3, 5] was 19 ± 2%.

In the case of “MIPETQKGVIFYESHGKLEYKDIP (MIPETQKGVIFYESHGKLEYKDIP)”, the “Activity (%) (mean activity ± S.D.) N^a -AT” value [3, 5] is reported as 15 ± 2%.

With “PIPETQKGVIFYESHGKLEYKDIP (PIPETQKGVIFYESHGKLEYKDIP)” the “Activity (%) (mean activity ± S.D.) N^a -AT” value [3, 5] was 70 ± 4%.

“SAPETQKGVIFYESHGKLEYKDIP (SAPETQKGVIFYESHGKLEYKDIP)” was tested, and the “Activity (%) (mean activity ± S.D.) N^a -AT” value [3, 6] was 168 ± 8% and the “Activity (%) (mean activity ± S.D.) M-N^a -AT” value [4] was 0%.

With “SCPETQKGVIFYESHGKLEYKDIP (SCPETQKGVIFYESHGKLEYKDIP)” the “Activity (%) (mean activity ± S.D.) N^a -AT” value [3, 6] was 136 ± 7% and the “Activity (%) (mean activity ± S.D.) M-N^a -AT” value [4] was 0%.

In the case of “SDPETQKGVIFYESHGKLEYKDIP (SDPETQKGVIFYESHGKLEYKDIP)”, the “Activity (%) (mean activity ± S.D.) N^a -AT” value [3, 6] is reported as 171 ± 9% and the “Activity (%) (mean activity ± S.D.) M-N^a -AT” value [4] is reported as 0%.

In the case of “TIPETQKGVIFYESHGKLEYKDIP (TIPETQKGVIFYESHGKLEYKDIP)”, the “Activity (%) (mean activity ± S.D.) N^a -AT” value [3, 5] is reported as 103 ± 5%.

With “VIPETQKGVIFYESHGKLEYKDIP (VIPETQKGVIFYESHGKLEYKDIP)” the “Activity (%) (mean activity ± S.D.) N^a -AT” value [3, 5] was 69 ± 4%.

With “YIPETQKGVIFYESHGKLEYKDIP (YIPETQKGVIFYESHGKLEYKDIP)” the “Activity (%) (mean activity ± S.D.) N^a -AT” value [3, 5] was 20 ± 2%.
